Measured values from ChEMBL document CHEMBL1201862, “PubChem BioAssay data set” (2004).
Active and inactive are the calls of the source.

Columns and labels:
[1] = microbe, parasite or virus in culture; type: functional; details: Mycobacterium tuberculosis
[2] = Luminescence Cell-Based Dose Retest to Confirm Inhibitors of Cancer Stem Cells. [Related pubchem assays (depositor defined):AID2717, AID2721]; type: functional; details: Homo sapiens
[3] = cytotoxicity toward NIH3T3 fibroblasts, dose response, counter-screen, cell-based, ATP luminescence, mouse fibroblasts (AID 2010); type: functional;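 also: cells exposed to compound for about 90 hours before reading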
[4] = inhibitors of intracellular T. cruzi replication, confirmation, NIH3T3 host cells, beta-gal luminescence (AID 2044); type: functional, cell-based;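 also: intracellular parasites grown in NIH/3T3 mouse fibroblasts as host cells; luminescent beta-galactosidase reporter signal from transgenic T. cruzi replicating inside host cells; inhibitors lower the luminescence signal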
[5] = target: T1, Short transient receptor potential channel 4 (Mus musculus, UniProt Q9QUQ5); test: mouse TRPC4 channel inhibitors, dose response, cell-based, HEK293 TRPC4/mu-opioid, Fluo-4 calcium (AID 434942); type: functional;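 also: potency of inhibitors blocking the TRPC4 calcium response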
T1 sequence (Q9QUQ5 whole entry): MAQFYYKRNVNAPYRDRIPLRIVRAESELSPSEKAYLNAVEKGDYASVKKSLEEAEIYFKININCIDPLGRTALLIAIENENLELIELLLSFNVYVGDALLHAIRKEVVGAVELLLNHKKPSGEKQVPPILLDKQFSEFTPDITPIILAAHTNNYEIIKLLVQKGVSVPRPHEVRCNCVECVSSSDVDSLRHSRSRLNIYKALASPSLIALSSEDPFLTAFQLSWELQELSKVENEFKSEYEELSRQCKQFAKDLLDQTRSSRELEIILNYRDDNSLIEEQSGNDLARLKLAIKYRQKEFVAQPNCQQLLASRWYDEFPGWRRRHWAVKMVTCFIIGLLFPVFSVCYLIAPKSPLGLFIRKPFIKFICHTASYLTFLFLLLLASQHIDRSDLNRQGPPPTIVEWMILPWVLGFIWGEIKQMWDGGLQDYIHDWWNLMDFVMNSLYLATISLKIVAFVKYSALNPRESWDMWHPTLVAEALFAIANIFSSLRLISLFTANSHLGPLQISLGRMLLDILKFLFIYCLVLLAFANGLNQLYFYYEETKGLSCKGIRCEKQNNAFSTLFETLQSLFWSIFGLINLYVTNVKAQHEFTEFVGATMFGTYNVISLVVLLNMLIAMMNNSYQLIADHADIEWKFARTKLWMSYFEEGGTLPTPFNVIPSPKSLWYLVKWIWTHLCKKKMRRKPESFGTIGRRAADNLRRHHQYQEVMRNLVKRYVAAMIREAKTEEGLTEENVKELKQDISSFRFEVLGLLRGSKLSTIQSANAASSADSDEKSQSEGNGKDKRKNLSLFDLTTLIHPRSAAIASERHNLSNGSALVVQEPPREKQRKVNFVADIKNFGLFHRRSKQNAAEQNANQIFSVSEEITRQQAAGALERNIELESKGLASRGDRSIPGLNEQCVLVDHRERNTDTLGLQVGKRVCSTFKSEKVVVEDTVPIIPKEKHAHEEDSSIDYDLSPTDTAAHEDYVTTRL

[6] = inhibitors of Vif binding to APOBEC3G peptide, primary screen, biochemical, TR-FRET, GST-Vif 1-94, biotin-A3G peptide, dose response retest (AID 1117319); type: functional;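 also: TR-FRET signal of purified GST-Vif binding a biotinylated A3G peptide; inhibitors lower the FRET signal by blocking Vif and A3G binding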
[7] = cytotoxicity in HEK-293T cells, dose response, cytotoxicity control for TCR NF-kB inhibitor project, luminescence, T-cell screen hits (AID 489026); type: functional, cell-based;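 also: cells exposed to compound about 14 hours before the viability readout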
[8] = tested on: BJ; test: cytotoxicity toward BJ-TERT fibroblasts, dose response, cell-based, RAS-independent, luminescence (AID 1933); type: functional; details: Homo sapiens
[9] = inhibitors of SNCA 5'UTR-driven reporter translation, confirmation, H4 neuroglioma cells, luminescence (AID 1988); type: functional, cell-based
[10] = tested on: BJ; test: cells; type: functional, cell-based; details: Homo sapiens
[11] = inhibitors of firefly luciferase expression or activity, dose response, H4 neuroglioma cells, luminescence (AID 1990); type: functional, cell-based
[12] = Luminescence Cell-Based Dose Response HTS to Identify Inhibitors of 5'UTR Stem-Loop Driven Prion Protein mRNA Translation in H4 Neuroglioblastoma Cells. [Related pubchem assays: 1827 (Project Summary), 1813 (Primary HTS)]; type: functional
[13] = cytotoxicity toward DRD oncogenic fibroblasts, dose response, cell-based, non-viral oncogenic, luminescence (AID 1934); type: functional; details: Homo sapiens
[14] = tested on: BJ; test: cytotoxicity toward BJ-TERT-LT-ST fibroblasts, dose response, cell-based, RAS-independent, luminescence (AID 1935); type: functional; details: Homo sapiens;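 also: BJ fibroblasts immortalized with TERT plus LT and ST oncogenes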
[15] = target: Glucose-6-phosphate 1-dehydrogenase (Homo sapiens, UniProt P11413); test: human G6PD enzyme inhibitors, dose response, selectivity assay for P. falciparum G6PD inhibitor project, biochemical, fluorescence (AID 504792); type: functional
Glucose-6-phosphate 1-dehydrogenase, sequence (P11413 whole entry): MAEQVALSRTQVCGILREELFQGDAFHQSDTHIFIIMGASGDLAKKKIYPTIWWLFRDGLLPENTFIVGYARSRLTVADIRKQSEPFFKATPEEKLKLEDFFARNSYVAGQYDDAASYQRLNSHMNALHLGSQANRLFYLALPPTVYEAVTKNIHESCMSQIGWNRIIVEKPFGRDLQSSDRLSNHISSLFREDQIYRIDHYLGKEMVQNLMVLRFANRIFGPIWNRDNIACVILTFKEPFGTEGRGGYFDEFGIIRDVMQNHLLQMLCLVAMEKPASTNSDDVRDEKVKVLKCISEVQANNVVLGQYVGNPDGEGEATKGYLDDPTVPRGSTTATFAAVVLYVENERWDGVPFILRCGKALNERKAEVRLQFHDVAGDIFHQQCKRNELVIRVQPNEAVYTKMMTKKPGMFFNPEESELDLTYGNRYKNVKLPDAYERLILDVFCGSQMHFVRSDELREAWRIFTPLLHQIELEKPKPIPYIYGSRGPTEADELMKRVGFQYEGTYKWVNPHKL

[16] = target: T2, Acyl-homoserine lactone acylase PvdQ (Pseudomonas aeruginosa (strain LESB58), UniProt Q9I194); test: P. aeruginosa PvdQ acylase inhibitors, dose response, biochemical, fluorescence, plate reader and imaging, cherry-picks (AID 493231)
T2 sequence (Q9I194 whole entry): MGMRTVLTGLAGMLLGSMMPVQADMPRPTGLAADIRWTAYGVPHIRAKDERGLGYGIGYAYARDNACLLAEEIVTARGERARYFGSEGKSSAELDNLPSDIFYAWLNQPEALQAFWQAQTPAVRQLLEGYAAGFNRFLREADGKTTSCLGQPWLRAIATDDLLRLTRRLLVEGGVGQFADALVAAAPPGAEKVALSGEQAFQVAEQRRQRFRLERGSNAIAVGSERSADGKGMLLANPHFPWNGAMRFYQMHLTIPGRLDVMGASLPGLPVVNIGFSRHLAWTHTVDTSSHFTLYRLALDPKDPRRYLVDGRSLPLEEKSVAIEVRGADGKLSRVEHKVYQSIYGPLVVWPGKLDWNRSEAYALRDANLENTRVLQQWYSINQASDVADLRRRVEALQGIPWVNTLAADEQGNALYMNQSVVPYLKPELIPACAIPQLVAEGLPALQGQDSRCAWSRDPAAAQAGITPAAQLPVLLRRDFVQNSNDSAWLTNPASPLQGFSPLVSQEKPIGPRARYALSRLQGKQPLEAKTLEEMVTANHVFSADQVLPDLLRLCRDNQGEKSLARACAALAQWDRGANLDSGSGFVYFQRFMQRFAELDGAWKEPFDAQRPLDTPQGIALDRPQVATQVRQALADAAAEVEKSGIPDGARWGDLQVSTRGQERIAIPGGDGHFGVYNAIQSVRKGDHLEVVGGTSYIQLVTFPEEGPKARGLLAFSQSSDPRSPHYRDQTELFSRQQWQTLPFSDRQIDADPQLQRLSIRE

SMILES: CC(=O)C1=C(C)NC(SCC(=O)c2ccc(F)cc2)=C(C#N)C1c1ccco1 (stereo unspecified)
- CC50 [1]: 39.2 µM (active)

SMILES: O=S(=O)(c1ccc(Cl)cc1)N1CCC(n2cnc3cc(C(F)(F)F)ccc32)CC1
- AC50 [2]: 0.552 µM (active)
- EC50 [3]: > 60 µM (not active)
- CC50 [1]: > 40 µM (active)
- EC50 [4]: 2.04 µM (active)

SMILES: CN1CCN(c2nc(-c3cccnc3)nc3scc(-c4ccccc4)c23)CC1
- EC50 [5]: 11.9 µM (active)

SMILES: O=C1c2ccccc2C(Nc2ccc(F)c(Cl)c2)N1c1ccccn1 (stereo unspecified)
- IC50 [6]: > 100 µM (active)

SMILES: O=C(c1cc(-c2ccncc2)nc2c(Cl)cccc12)N1CCN(c2ccccc2F)CC1
- IC50 [7]: > 80 µM (inactive)
- EC50 [8]: 8.6 µM (inconclusive)
- EC50 [9]: 3.67 µM (active)
- EC50 [10]: 18.9 µM (active)
- EC50 [11]: 7.93 µM (inconclusive)
- EC50 [12]: > 120 µM (not active)
- EC50 [13]: 12.8 µM (inconclusive)
- EC50 [14]: 4.08 µM (active)

SMILES: CC(C)(C)c1ccc(C(=O)N2CCN(CCNC(=O)C(=O)NCc3ccc(Cl)cc3)CC2)cc1
- EC50 [3]: > 30 µM (not active)
- CC50 [1]: > 40 µM (active)
- EC50 [4]: 3.43 µM (active)

SMILES: O=C(Nc1nnc(S(=O)(=O)N2CCOCC2)s1)c1ccc(F)cc1
- IC50 [15]: > 80 µM (inactive)

SMILES: Cc1ccc2nc(-c3ccncc3)cc(-c3ccccc3)c2c1
- CC50 [1]: > 40 µM (active)

SMILES: CCCc1ccc(C2=Nn3c(nnc3C(C)C)SC2)cc1
- CC50 [1]: > 40 µM (active)

SMILES: CC(C)Oc1ccc(Nc2ncnc3ccccc23)cc1
- AC50 [16]: 16.3 µM (active)

SMILES: O=C1OC(c2ccccc2)c2ccccc21 (stereo unspecified)
- AC50 [16]: 97.9 µM (active)

SMILES: Cc1ccc2c(c1C)NC(=O)C2(O)CC(=O)c1ccc2c(c1)OCO2 (stereo unspecified)
- IC50 [6]: > 100 µM (active)

SMILES: Clc1ccc2scc(CN3CCCCC3)c2c1
- AC50 [16]: 9.4 µM (active)

SMILES: OCCNCc1cc(Br)ccc1OCc1ccc(Cl)cc1Cl
- EC50 [5]: 3.35 µM (active)
